From ChEMBL document CHEMBL3124760, “Inhibitors of NS5A for Treatment of HCV Infection” (ACS Med Chem Lett, 2014)

The compounds below were run on Hepatitis C virus (assay: Antiviral activity against Hepatitis C virus genotype 1a expressing neomycin phosphotransferase after 3 days by luciferase reporter gene assay). Settings: subtype 1a, 72 h.
Format: functional, organism-based, Hepacivirus hominis

| EC50 [pM] | SMILES |
| --- | --- |
| 6 | COC(=O)N[C@H](C(=O)N1CCC[C@H]1c1nc2cc(-c3ccc4cc(-c5cnc([C@@H]6C[C@H]7C[C@H]7N6C(=O)[C@@H](NC(=O)OC)C(C)C)[nH]5)ccc4c3)ccc2c(=O)[nH]1)C(C)C |
| 26 | COC(=O)N[C@H](C(=O)N1CC2(C[C@H]1c1nc3cc(-c4ccc5cc(-c6cnc([C@@H]7C[C@H]8C[C@H]8N7C(=O)[C@@H](NC(=O)OC)C(C)C)[nH]6)ccc5c4)ccc3c(=O)[nH]1)OCCCO2)C(C)C |
| 8 | COC(=O)N[C@H](C(=O)N1CC2(C[C@H]1c1ncc(-c3ccc4cc(-c5ccc6c(=O)[nH]c([C@@H]7C[C@H]8C[C@H]8N7C(=O)[C@@H](NC(=O)OC)C(C)C)nc6c5)ccc4c3)[nH]1)OCCO2)C(C)C |
| 6 | COC(=O)N[C@H](C(=O)N1CCC[C@H]1c1ncc(-c2ccc3cc(-c4ccc5c(=O)[nH]c([C@@H]6C[C@@H]7CCCC[C@@H]7N6C(=O)[C@@H](NC(=O)OC)C(C)C)nc5c4)ccc3c2)[nH]1)C(C)C |
